Measured values taken from article PMC8944748, “Kojic Acid Showed Consistent Inhibitory Activity on Tyrosinase from Mushroom and in Cultured B16F10 Cells Compared with Arbutins” (Antioxidants, 2022).
“Also recorded” adds a separate entry of the source.

Experiments:
[1] = Cell viability of B16F10 cells, CCK-8 assay; assay type: cell-based, mouse; conditions: mouse, B16F10 melanoma cells, percentage of the control
Protocol: Blank group (control 1) was the treatment containing cells and medium. […] Compound groups were the treatments containing cells, medium, α-MSH, and related compounds. Experiments were performed at least in triplicate. […] B16F10 cells at the exponential phase were adjusted for cell density and used in the following assay. […] Cells were seeded into 96-well plates at a density of 1 × 10^4 cells/well and incubated for 24 h. Then, the cells were treated with different concentrations of compounds for 48 h. After rinsing once with D-PBS, 100 uL DMEM containing 10% CCK-8 was added and incubated for another 1 h. The absorbance values of the solution at 450 nm were measured. The cell viability is expressed as a percentage of the control.

[2] = tested on: diphenolase of mushroom tyrosinase (MTYR); assay: MTYR diphenolase activity assay (L-DOPA as substrate, dopachrome at 475 nm); assay type: biochemical; conditions: L-DOPA
Protocol: L-tyrosine and L-DOPA were used as the substrates to test the monophenolase activity and diphenolase activity, respectively. Freshly prepared tyrosinase and substrate solutions were used in this experiment. For air-saturated solutions, a temperature of 25 °C and pH of 6.8 was maintained throughout the study. All assays were performed in triplicate. […] Additionally, three concentrations of every compound were selected to present progress curves. Once the substrate was added in reaction system, the formation of dopachrome was immediately measured at 475 nm for 25 min at 1 min intervals.

[3] = molecular target: monophenolase of mushroom tyrosinase (MTYR); assay: Kinetic analysis of MTYR monophenolase (Lineweaver-Burk plot); assay type: biochemical
Protocol: (§1) The concentration of enzyme was fixed, while the concentration of substrate was changed. […] When determining inhibition type of monophenolase, the concentration of kojic acid were 7.5, 30, and 120 µM. […] The concentrations of deoxyarbutin were 3.75, 15, and 60 µM. […] The concentrations of deoxyarbutin were 7.5, 30, and 120 µM. Once the substrate was added to the reaction system, the formation of dopachrome was immediately detected at 475 nm once every minute for 30 min. Steady state rate (V0) was defined as the slope of the linear range of progress curves, also called the dopachrome accumulation curve. The Km (substrate concentration that yield a half-maximal velocity) and Vmax (maximum velocity) of tyrosinase were determined by Michaelis–Menten equation. Lineweaver–Burk plot was used to display the data.

[4] = tested on: monophenolase of mushroom tyrosinase (MTYR); assay: MTYR monophenolase activity assay (L-tyrosine as substrate, dopachrome at 475 nm); assay type: biochemical
Protocol: L-tyrosine and L-DOPA were used as the substrates to test the monophenolase activity and diphenolase activity, respectively. Freshly prepared tyrosinase and substrate solutions were used in this experiment. For air-saturated solutions, a temperature of 25 °C and pH of 6.8 was maintained throughout the study. All assays were performed in triplicate. In flat-bottom 96-well plates, the reaction media was 200 μL. […] Once the substrate was added in reaction system, the formation of dopachrome was immediately measured at 475 nm for 30 min at 1 min intervals. The concentrations of kojic acid were 7.5, 15, 30, 60, and 120 μM. The concentrations of α-arbutin were 480, 960, 2000, 4000, and 8000 μM. The concentrations of β-arbutin were 240, 480, 960, 2000, and 4000 μM. […] These concentrations were used to determine the progress curves and inhibition rates of monophenolase. […] In the formula, 'negative control' is the treatment without sample; 'blank control' is the treatment without sample and substrate; 'sample' is the treatment including all solutions; and 'sample control' is the treatment without substrate but including sample. If the inhibition rate was negative, it meant the tyrosinase was activated. The activation rate was the absolute value of inhibition rate.

[5] = tested on: B16F10 cells; assay: Cellular melanin content of B16F10 cells stimulated by α-MSH; assay type: cell-based, mouse; conditions: 48 h, percentage of control 2
Protocol: (§2) Measurement of B16F10 cellular tyrosinase (BTYR) activity, melanin content, and cell viability were the same as our previous study. Blank group (control 1) was the treatment containing cells and medium. Control group (control 2) was the treatment containing cells, medium, and α-MSH. Compound groups were the treatments containing cells, medium, α-MSH, and related compounds. Experiments were performed at least in triplicate.
(§3) B16F10 mouse malignant melanoma cell line from Stem Cell Bank (Chinese Academy of Sciences, Shanghai, China) were cultured in DMEM supplemented with 10% fetal bovine serum (FBS; Gibco, Grand Island, NV, USA) and antibiotics (100 U/mL penicillin and 100μg/mL streptomycin) in a humidified atmosphere of 5% CO2 at 37 °C. B16F10 cells at the exponential phase were adjusted for cell density and used in the following assay.
Briefly, B16F10 cells were treated with compounds as in Section 2.4.2. After being washed with PBS and dissolved in 1 M NaOH containing 10% DMSO for 1 h at 80 °C, the cell lysates were centrifuged at 12,000 rpm for 10 min. 150 μL of supernatant was transferred to 96-well plates and the absorbance was measured at 405 nm. The melanin content is expressed as a percentage of the control.

[6] = molecular target: diphenolase of mushroom tyrosinase (MTYR); assay: Kinetic analysis of MTYR diphenolase (Lineweaver-Burk plot); assay type: biochemical
Protocol: as §1

[7] = tested on: T1, B16F10 cellular tyrosinase (BTYR); assay: B16F10 cellular tyrosinase (BTYR) activity, L-DOPA oxidase activity of lysate after treatment of cells; assay type: cell-based, mouse; conditions: 48 h, percentage of control 2
T1 construct: The supernatant was used as the BTYR solution; endogenous in cells; host or cells: B16F10 mouse melanoma cells, α-MSH stimulated
Protocol: as §2, §3
The BTYR activity was measured as the L-DOPA oxidase activity. B16F10 cells were seeded and incubated for 24 h in 24-well cell culture plates. Then, they were treated with 50 µL of 1 µM α-MSH and different molarities of compounds for another 48 h. After being washed twice with cold D-PBS and lysed with a lysis buffer (P0013J) containing 1% Triton X-100 for 30 min at −20 °C, the lysates were centrifuged at 12,000 rpm for 10 min at 4 °C. The supernatant was used as the BTYR solution. The reaction mixture, containing 50 μL of cell lysate supernatant and 50 μL of 5 mM L-DOPA, was incubated at 37 °C for 1 h and the level of dopachrome formation was measured spectrophotometrically at 475 nm. Lysis buffer was used as the control. The BTYR activity was calculated as a percentage of the control.

[8] = tested on: tyrosinase diphenolase from B16 mouse melanoma cells; parameters: method as in PMID 7765966; conditions: cited from earlier work
[9] = tested on: diphenolase activity of MTYR; parameters: method as in PMID 7765966; conditions: α-arbutin below 10 mM; cited from earlier work
[10] = molecular target: MTYR monophenolase; parameters: method as in PMID 28493937; conditions: read-out: IC50 on the inhibitory activity of MTYR monophenolase; cited from earlier work
[11] = tested on: three-dimensional human skin model; parameters: method as in PMID 15056856; conditions: cited from earlier work
[12] = change with increasing compound molarity

lag time on diphenolase activity ([2]; progress curves): no lag time
Kinetic analysis on monophenolase Inhibition type ([3]; Lineweaver-Burk plot): competitive inhibitor
Kinetic analysis on monophenolase Km [3, 12]: increased
Kinetic analysis on monophenolase Vmax [3, 12]: remained constant
lag time for monophenolase activity ([4]; L-tyrosine, progress curves): extended in a molarity-dependent manner
IC50 ([4]; substrate L-tyrosine 2 mM, MTYR 300 U/mL, 25 °C, pH 6.8): 6.5 ± 0.137 mM
Kinetic analysis on diphenolase Inhibition type ([6]; Lineweaver-Burk plot): uncompetitive activator
Kinetic analysis on diphenolase Km [6, 12]: increased
Kinetic analysis on diphenolase Vmax [6, 12]: increased
Compound: OC[C@H]1O[C@H](Oc2ccc(O)cc2)[C@H](O)[C@@H](O)[C@@H]1O [α-arbutin]
viability at 48 h, 43.8 µM ([1]; 43.8 µM): 108 ± 5%
viability at 48 h, 87.5 µM ([1]; 87.5 µM): 113 ± 7%
viability at 48 h, 175 µM ([1]; 175 µM): 118 ± 8%
viability at 48 h, 350 µM ([1]; 350 µM): 127 ± 10%
viability at 48 h, 700 µM ([1]; 700 µM): 145 ± 14%
effect on diphenolase activity of MTYR ([2]; 30-8000 µM): prompted tyrosinase activity in a dose-dependent manner
melanin content of B16F10 cells stimulated by α-MSH ([5]; 43.8 µM): 95 ± 11%
melanin content of B16F10 cells stimulated by α-MSH ([5]; 87.5 µM): 91 ± 5%
melanin content of B16F10 cells stimulated by α-MSH ([5]; 175 µM): 92 ± 3%
melanin content of B16F10 cells stimulated by α-MSH ([5]; 350 µM): 87 ± 5%
melanin content of B16F10 cells stimulated by α-MSH ([5]; 700 µM): 81 ± 3%
tyrosinase activity of B16F10 cells stimulated by α-MSH ([7]; 43.8 µM): 91 ± 4%
tyrosinase activity of B16F10 cells stimulated by α-MSH ([7]; 87.5 µM): 88 ± 4%
tyrosinase activity of B16F10 cells stimulated by α-MSH ([7]; 175 µM): 90 ± 5%
tyrosinase activity of B16F10 cells stimulated by α-MSH ([7]; 350 µM): 93 ± 5%
tyrosinase activity of B16F10 cells stimulated by α-MSH ([7]; 700 µM): 86 ± 5%
potency relative to β-arbutin as inhibitor of tyrosinase from B16 mouse melanoma [8]: 10 times
effect on diphenolase activity of MTYR [9]: did not inhibit; also recorded: does not inhibit
IC50 [10]: 8 mM
inhibition of melanin synthesis [11]: 60%
